What follows are cell lines tested with CC1CC(=O)N(C2=CN=C(N=C2N1C3CCCC3)NC4=C(C=C(C=C4)C(=O)NC5CCN(CC5)C)OC)C [NPK76-II-72-1] + CCNC(=O)c1noc(-c2cc(C(C)C)c(O)cc2O)c1-c1ccc(CN2CCOCC2)cc1 [Luminespib] (partner 0.01 µM) (assay: relative viability (nuclei count vs DMSO), 5 days (fraction); higher = more cells survive). Conditions: first compound 0.01 µM.
Procedure, shortened: (§1)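 Lung cancer cell lines were pin-tool dosed in 1536-well plates on the day after seeding, with either a lone drug or a fixed anchor-drug dose plus five library-drug doses (not always all listed) in √10 steps. Nuclei were counted on 4× images after 5 days. Relative viability is the ratio of treated-well to vehicle-well nuclei counts, with each value a median of duplicate plates.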

Point of comparison: H3255, relative viability 0.871. Against it:
- NCI-H522 — higher, 1.05
- NCI-H1623 — lower, 0.448
- NCI-H727 — lower, 0.29
- NCI-H1650 — lower, 0.185
- NCI-H1993 — lower, 0.848
- SW 1573 — lower, 0.333
- NCI-H838 — lower, 0.288
- LCLC-103H — higher, 0.9
- NCI-H520 — lower, 0.206
- NCI-H2126 — higher, 0.88
- EMC-BAC-2 — higher, 1.14
- NCI-H2085 — lower, 0.442
- NCI-H1666 — higher, 0.977
- NCI-H596 — the same, 0.871
- LK-2 — lower, 0.183
- NCI-H2087 — lower, 0.154
- NCI-H2342 — lower, 0.653
- SK-MES-1 — lower, 0.827
- COR-L23 — lower, 0.655
- COR-L 105 — lower, 0.782
- LOU-NH91 — lower, 0.305
- ChaGo-K-1 — lower, 0.624
- NCI-H2170 — lower, 0.63
- NCI-H2405 — lower, 0.625
- HOP-62 — higher, 0.975
- HCC-44 — higher, 0.977
- SW 900 — lower, 0.183
- LU99A — lower, 0.261
- NCI-H1792 — lower, 0.404
- NCI-H1563 — lower, 0.5

Same assay, conditions: first compound 0.03162 µM

Point of comparison: LCLC-103H, relative viability 1.05. Against it:
- NCI-H522 — higher, 1.1
- NCI-H1623 — lower, 0.382
- NCI-H727 — lower, 0.31
- NCI-H1650 — lower, 0.198
- NCI-H1993 — lower, 0.87
- SW 1573 — lower, 0.218
- NCI-H838 — lower, 0.344
- NCI-H520 — lower, 0.24
- NCI-H2126 — lower, 0.907
- EMC-BAC-2 — higher, 1.19
- NCI-H2085 — lower, 0.437
- NCI-H1666 — lower, 1.03
- NCI-H596 — higher, 1.18
- LK-2 — lower, 0.214
- NCI-H2087 — lower, 0.16
- NCI-H2342 — lower, 0.6
- SK-MES-1 — lower, 0.79
- H3255 — lower, 0.76
- COR-L23 — lower, 0.789
- COR-L 105 — lower, 0.642
- LOU-NH91 — lower, 0.324
- ChaGo-K-1 — lower, 0.616
- NCI-H2170 — lower, 0.403
- NCI-H2405 — lower, 0.688
- HOP-62 — lower, 1.04
- HCC-44 — higher, 1.26
- SW 900 — lower, 0.19
- LU99A — lower, 0.212
- NCI-H1792 — lower, 0.504
- NCI-H1563 — lower, 0.627

Same assay, conditions: first compound 0.1 µM

Point of comparison: SW 900, relative viability 0.171. Against it:
- NCI-H522 — higher, 1.42
- NCI-H1623 — higher, 0.513
- NCI-H727 — higher, 0.288
- NCI-H1650 — higher, 0.207
- NCI-H1993 — higher, 0.925
- SW 1573 — higher, 0.278
- NCI-H838 — higher, 0.299
- LCLC-103H — higher, 0.919
- NCI-H520 — higher, 0.285
- NCI-H2126 — higher, 0.933
- EMC-BAC-2 — higher, 1.16
- NCI-H2085 — higher, 0.391
- NCI-H1666 — higher, 0.987
- NCI-H596 — higher, 0.975
- LK-2 — higher, 0.215
- NCI-H2087 — lower, 0.136
- NCI-H2342 — higher, 0.67
- SK-MES-1 — higher, 0.646
- H3255 — higher, 0.55
- COR-L23 — higher, 0.746
- COR-L 105 — higher, 0.934
- LOU-NH91 — higher, 0.347
- ChaGo-K-1 — higher, 0.695
- NCI-H2170 — higher, 0.586
- NCI-H2405 — higher, 0.773
- HOP-62 — higher, 0.885
- HCC-44 — higher, 0.996
- LU99A — higher, 0.304
- NCI-H1792 — higher, 0.469
- NCI-H1563 — higher, 0.578

Same assay, conditions: first compound 0.3162 µM

Point of comparison: NCI-H2170, relative viability 0.548. Against it:
- NCI-H522 — higher, 1.14
- NCI-H1623 — lower, 0.421
- NCI-H727 — lower, 0.246
- NCI-H1650 — lower, 0.194
- NCI-H1993 — higher, 0.764
- SW 1573 — lower, 0.383
- NCI-H838 — lower, 0.273
- LCLC-103H — higher, 1.03
- NCI-H520 — lower, 0.181
- NCI-H2126 — higher, 0.814
- EMC-BAC-2 — higher, 1.09
- NCI-H2085 — lower, 0.381
- NCI-H1666 — higher, 0.924
- NCI-H596 — higher, 1.03
- LK-2 — lower, 0.191
- NCI-H2087 — lower, 0.158
- NCI-H2342 — the same, 0.548
- SK-MES-1 — higher, 0.688
- H3255 — higher, 0.675
- COR-L23 — higher, 0.711
- COR-L 105 — lower, 0.508
- LOU-NH91 — lower, 0.33
- ChaGo-K-1 — lower, 0.523
- NCI-H2405 — higher, 0.771
- HOP-62 — higher, 0.789
- HCC-44 — higher, 1.02
- SW 900 — lower, 0.169
- LU99A — lower, 0.238
- NCI-H1792 — lower, 0.5
- NCI-H1563 — lower, 0.519

Same assay, conditions: first compound 1 µM

Point of comparison: NCI-H1666, relative viability 1.06. Against it:
- NCI-H522 — higher, 1.27
- NCI-H1623 — lower, 0.574
- NCI-H727 — lower, 0.412
- NCI-H1650 — lower, 0.194
- NCI-H1993 — lower, 0.818
- SW 1573 — lower, 0.21
- NCI-H838 — lower, 0.274
- LCLC-103H — lower, 1.01
- NCI-H520 — lower, 0.245
- NCI-H2126 — lower, 0.901
- EMC-BAC-2 — higher, 1.38
- NCI-H2085 — lower, 0.437
- NCI-H596 — higher, 1.12
- LK-2 — lower, 0.191
- NCI-H2087 — lower, 0.185
- NCI-H2342 — lower, 0.709
- SK-MES-1 — lower, 0.857
- H3255 — lower, 0.891
- COR-L23 — lower, 0.761
- COR-L 105 — lower, 0.704
- LOU-NH91 — lower, 0.345
- ChaGo-K-1 — lower, 0.67
- NCI-H2170 — lower, 0.61
- NCI-H2405 — lower, 0.93
- HOP-62 — lower, 0.992
- HCC-44 — higher, 1.2
- SW 900 — lower, 0.169
- LU99A — lower, 0.278
- NCI-H1792 — lower, 0.556
- NCI-H1563 — lower, 0.504

What follows are cell lines tested with CC1CC(=O)N(C2=CN=C(N=C2N1C3CCCC3)NC4=C(C=C(C=C4)C(=O)NC5CCN(CC5)C)OC)C [NPK76-II-72-1] + Cc1nc(Nc2ncc(C(=O)Nc3c(C)cccc3Cl)s2)cc(N2CCN(CCO)CC2)n1 [Dasatinib] (partner 0.075 µM) in the same assay as above. Conditions: first compound 0.01 µM.
Procedure, shortened: as §1

Point of comparison: NCI-H522, relative viability 0.77. Against it:
- NCI-H1623 — lower, 0.562
